System: JR251 or RBL cells
Assay: Store-operated calcium entry, either JR251 or RBL cells, or both
Format: cell-based
Method in brief: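 Orai1/STIM1 stable cells: fluo-4-AM loaded, compound 30 min at RT in Ca2+-free HBSS, then CaCl2 added; IC50 from Peak-Basal FLIPR fluorescence. RBL-2H3 cells: compound 5 min, then thapsigargin (5.5× stock, 5.5 uM) 25 min, then calcium added; IC50 from Upslope (signal 7 s after calcium minus baseline).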

Row | IC50 | Compound
1 | < 10 µM | Cc1cccc2ncc(C(=O)Nc3scc(-c4ccc(Cl)cc4)c3C(=O)O)nc12 [4-(4-chlorophenyl)-2-(8-methylquinoxaline-2-carboxamido)thiophene-3-carboxylic acid]
2 | < 10 µM | CC(C(=O)Nc1scc(-c2ccc(Br)cc2)c1C(=O)O)C(C)c1ccccc1 (stereo not shown) [4-(4-bromophenyl)-2-(2-methyl-3-phenylbutanamido)thiophene-3-carboxylic acid]
3 | < 10 µM | O=C(Nc1scc(-c2ccc(Cl)cc2)c1C(=O)O)c1ccc2nccn2c1 [4-(4-chlorophenyl)-2-(imidazo[1,2-a]pyridine-6-carboxamido)thiophene-3-carboxylic acid]
4 | < 10 µM | O=C(Nc1scc(-c2ccc(Cl)cc2)c1C(=O)O)c1cc2nccnc2s1 [4-(4-chlorophenyl)-2-(thieno[2,3-b]pyrazine-6-carboxamido)thiophene-3-carboxylic acid]
5 | < 10 µM | O=C(CCc1ccc(F)c(F)c1)Nc1scc(-c2ccc(Cl)cc2)c1C(=O)O [4-(4-chlorophenyl)-2-(3-(3,4-difluorophenyl)propanamido)thiophene-3-carboxylic acid]
6 | < 10 µM | Cn1nc(C(=O)Nc2scc(-c3ccc(Cl)cc3)c2C(=O)O)cc1-c1ccco1 [4-(4-chlorophenyl)-2-(5-(furan-2-yl)-1-methyl-1H-pyrazole-3-carboxamido)thiophene-3-carboxylic acid]
7 | < 10 µM | O=C(Nc1scc(-c2cc(F)c(Cl)cc2F)c1C(=O)O)c1nc2ccccc2o1 [2-(benzo[d]oxazole-2-carboxamido)-4-(4-chloro-2,5-difluorophenyl)thiophene-3-carboxylic acid]
8 | < 10 µM | O=C(Nc1scc(-c2ccc(Cl)c(C(F)(F)F)c2)c1C(=O)O)c1nc2ccccc2o1 [2-(benzo[d]oxazole-2-carboxamido)-4-(4-chloro-3-(trifluoromethyl)phenyl)thiophene-3-carboxylic acid]
9 | < 10 µM | Cc1nn(C)c2sc(C(=O)Nc3scc(-c4ccc(Cl)cc4)c3C(=O)O)cc12 [4-(4-chlorophenyl)-2-(1,3-dimethyl-1H-thieno[2,3-c]pyrazole-5-carboxamido)thiophene-3-carboxylic acid]
10 | < 10 µM | N#Cc1cccc2nc(C(=O)Nc3scc(-c4ccc(Cl)cc4)c3C(=O)O)oc12 [4-(4-chlorophenyl)-2-(7-cyanobenzo[d]oxazole-2-carboxamido)thiophene-3-carboxylic acid]
11 | < 10 µM | COc1ccc(C(=O)Nc2scc(-c3ccc(Cl)cc3)c2C(=O)O)c(OC)n1 [4-(4-chlorophenyl)-2-(2,6-dimethoxynicotinamido)thiophene-3-carboxylic acid]
12 | < 10 µM | O=C(Nc1scc(-c2ccc(Cl)cc2)c1C(=O)O)c1nccc(-c2ccccc2)n1 [4-(4-chlorophenyl)-2-(4-phenylpyrimidine-2-carboxamido)thiophene-3-carboxylic acid]
13 | < 10 µM | Cc1nn(C)c2sc(C(=O)Nc3scc(-c4ccc(Br)cc4)c3C(=O)O)cc12 [4-(4-bromophenyl)-2-(1,3-dimethyl-1H-thieno[2,3-c]pyrazole-5-carboxamido)thiophene-3-carboxylic acid]
14 | < 10 µM | O=C(Nc1scc(-c2ccc(Cl)cc2F)c1C(=O)O)c1nc2ccccc2s1 [2-(benzo[d]thiazole-2-carboxamido)-4-(4-chloro-2-fluorophenyl)thiophene-3-carboxylic acid]
15 | < 10 µM | Cc1ccc(-c2csc(NC(=O)c3ccc4occc4c3)c2C(=O)O)c(F)c1F [2-(benzofuran-5-carboxamido)-4-(2,3-difluoro-4-methylphenyl)thiophene-3-carboxylic acid]
16 | < 10 µM | CC(C)S(=O)(=O)c1csc(C(=O)Nc2scc(-c3ccc(Cl)cc3)c2C(=O)O)c1Cl [2-(3-chloro-4-(isopropylsulfonyl)thiophene-2-carboxamido)-4-(4-chlorophenyl)thiophene-3-carboxylic acid]
17 | < 10 µM | O=C(Nc1scc(-c2ccc(Br)c(F)c2F)c1C(=O)O)c1ccc2occc2c1 [2-(benzofuran-5-carboxamido)-4-(4-bromo-2,3-difluorophenyl)thiophene-3-carboxylic acid]
18 | < 10 µM | Cc1cc(C(=O)Nc2scc(-c3ccc(Br)cc3)c2C(=O)O)cc(O)n1 [4-(4-bromophenyl)-2-(2-hydroxy-6-methylisonicotinamido)thiophene-3-carboxylic acid]
19 | < 10 µM | O=C(Nc1scc(-c2ccc(Cl)cc2)c1C(=O)O)c1nc2ccccc2s1 [2-(benzo[d]thiazole-2-carboxamido)-4-(4-chlorophenyl)thiophene-3-carboxylic acid]
20 | < 10 µM | CC(C)C(C(=O)Nc1scc(-c2ccc(Cl)c(Cl)c2)c1C(=O)O)c1ccc(Cl)cc1 (stereo not shown) [2-(2-(4-chlorophenyl)-3-methylbutanamido)-4-(3,4-dichlorophenyl)thiophene-3-carboxylic acid]
21 | < 10 µM | O=C(Nc1scc(-c2ccc(Cl)cc2)c1C(=O)O)c1cc2c(F)cccn2n1 [4-(4-chlorophenyl)-2-(4-fluoropyrazolo[1,5-a]pyridine-2-carboxamido)thiophene-3-carboxylic acid]

Row | IC50 | Compound
22 | < 10 µM | O=C(Nc1scc(-c2ccc(Br)cc2F)c1C(=O)O)c1nc2ccccc2o1 [2-(benzo[d]oxazole-2-carboxamido)-4-(4-bromo-2-fluorophenyl)thiophene-3-carboxylic acid]
23 | < 10 µM | Cc1ccc(-c2csc(NC(=O)c3nc4cc(F)c(F)cc4o3)c2C(=O)O)c(F)c1F [4-(2,3-difluoro-4-methylphenyl)-2-(5,6-difluorobenzo[d]oxazole-2-carboxamido)thiophene-3-carboxylic acid]
24 | < 10 µM | Cc1ccc(-c2csc(NC(=O)c3cccs3)c2C(=O)O)cc1 [2-(thiophene-2-carboxamido)-4-p-tolylthiophene-3-carboxylic acid]
25 | < 10 µM | O=C(Nc1scc(-c2cc3cc(Br)ccc3o2)c1C(=O)O)c1cc2ccccc2o1 [2-(benzofuran-2-carboxamido)-4-(5-bromobenzofuran-2-yl)thiophene-3-carboxylic acid]
26 | < 10 µM | O=C(Nc1scc(-c2ccc(C(F)(F)F)cc2)c1C(=O)O)c1nc2ccccc2o1 [2-(benzo[d]oxazole-2-carboxamido)-4-(4-(trifluoromethyl)phenyl)thiophene-3-carboxylic acid]
27 | < 10 µM | Cc1cc(-c2csc(NC(=O)c3cc4ccccc4o3)c2C(=O)O)c(C)cc1Br [2-(benzofuran-2-carboxamido)-4-(4-bromo-2,5-dimethylphenyl)thiophene-3-carboxylic acid]
28 | < 10 µM | O=C(CCc1ccc(F)cc1F)Nc1scc(-c2ccc(Cl)cc2)c1C(=O)O [4-(4-chlorophenyl)-2-(3-(2,4-difluorophenyl)propanamido)thiophene-3-carboxylic acid]
29 | < 10 µM | Cc1ccc(-c2csc(NC(=O)c3cc4ccccn4n3)c2C(=O)O)c(F)c1F [4-(2,3-difluoro-4-methylphenyl)-2-(pyrazolo[1,5-a]pyridine-2-carboxamido)thiophene-3-carboxylic acid]
30 | < 10 µM | O=C(O)c1c(-c2ccc(Cl)cc2)csc1NC(=O)C(F)Cc1ccc(F)cc1Cl (stereo not shown) [2-(3-(2-chloro-4-fluorophenyl)-2-fluoropropanamido)-4-(4-chlorophenyl)thiophene-3-carboxylic acid]
31 | < 10 µM | O=C(Nc1scc(-c2ccc(Cl)cc2)c1C(=O)O)c1nc2cccc(F)c2s1 [4-(4-chlorophenyl)-2-(7-fluorobenzo[d]thiazole-2-carboxamido)thiophene-3-carboxylic acid]
32 | < 10 µM | COc1cccc(C(=O)Nc2scc(-c3ccc(Br)cc3)c2C(=O)O)n1 [4-(4-bromophenyl)-2-(6-methoxypicolinamido)thiophene-3-carboxylic acid]
33 | < 10 µM | Cc1cnc(C(=O)Nc2scc(-c3ccc(Cl)cc3)c2C(=O)O)cn1 [4-(4-chlorophenyl)-2-(5-methylpyrazine-2-carboxamido)thiophene-3-carboxylic acid]
34 | < 10 µM | O=C(CCc1cccs1)Nc1scc(-c2ccc(Br)cc2)c1C(=O)O [4-(4-bromophenyl)-2-(3-(thiophen-2-yl)propanamido)thiophene-3-carboxylic acid]
35 | < 10 µM | Cc1ccc(-c2csc(NC(=O)c3cn4ccsc4n3)c2C(=O)O)c(F)c1F [4-(2,3-difluoro-4-methylphenyl)-2-(imidazo[2,1-b]thiazole-6-carboxamido)thiophene-3-carboxylic acid]
36 | < 10 µM | O=C(CCc1cccs1)Nc1scc(-c2ccc(Cl)cc2)c1C(=O)O [4-(4-chlorophenyl)-2-(3-(thiophen-2-yl)propanamido)thiophene-3-carboxylic acid]
37 | < 10 µM | O=C(Cc1coc2ccccc12)Nc1scc(-c2ccc(Br)cc2)c1C(=O)O [2-(2-(benzofuran-3-yl)acetamido)-4-(4-bromophenyl)thiophene-3-carboxylic acid]
38 | < 10 µM | O=C(Nc1scc(-c2ccc(Cl)cc2)c1C(=O)O)c1ccc([N+](=O)[O-])o1 [4-(4-chlorophenyl)-2-(5-nitrofuran-2-carboxamido)thiophene-3-carboxylic acid]
39 | < 10 µM | O=C(Nc1scc(-c2ccc(F)c(F)c2F)c1C(=O)O)c1nc2ccccc2o1 [2-(benzo[d]oxazole-2-carboxamido)-4-(2,3,4-trifluorophenyl)thiophene-3-carboxylic acid]
40 | < 10 µM | O=C(Nc1scc(-c2ccc(Cl)cc2)c1C(=O)O)c1ccco1 [4-(4-chlorophenyl)-2-(furan-2-carboxamido)thiophene-3-carboxylic acid]
41 | < 10 µM | O=C(Nc1scc(-c2cc3cc(O)ccc3o2)c1C(=O)O)c1cc2ccccc2o1 [2-(benzofuran-2-carboxamido)-4-(5-hydroxybenzofuran-2-yl)thiophene-3-carboxylic acid]
42 | < 10 µM | O=C(Nc1scc(-c2ccc(Cl)cc2)c1C(=O)O)c1nc2ccccc2o1 [2-(benzo[d]oxazole-2-carboxamido)-4-(4-chlorophenyl)thiophene-3-carboxylic acid]

Row | Compound | IC50
43 | CC(=O)Oc1cccc2cc(-c3csc(NC(=O)c4cc5ccccc5o4)c3C(=O)O)oc12 [4-(7-acetoxybenzofuran-2-yl)-2-(benzofuran-2-carboxamido)thiophene-3-carboxylic acid] | < 10 µM

Reference: patent publication US8394848B2, “Compounds that modulate intracellular calcium” (Calcimedica, Inc., priority 2008, dated 2013)
